Legend:
sphingomyelinase [1] = assay: Effect of metal ions on enzymatic activity; type: biochemical, Streptomyces sp. A 9107; conditions: no addition = 100
Method: (§1) After preincubating 0.45 ml of the following reaction mixture at 37° C., 50 μl of an enzyme solution is added to start the reaction. After just 10 minutes, 0.1 ml of 0.1M EDTA is added to stop the reaction.
(§2) The formed phosphorylcholine is led to a color development system through a H2 O2 by using the following reaction mixture, and absorbance at 500 nm is measured.
(§3) The indication of enzymatic activity is calculated from the following equation with activity to produce 1 μmole of phosphorylcholine for 1 minute as one unit:
(§4) wherein ΔA500 nm means a difference in absorbance at 500 nm between at the start of reaction and 10 minutes after the reaction.

sphingomyelinase [2] = assay: Effect of surfactant on enzymatic activity; type: biochemical, Streptomyces sp. A 9107; conditions: additive 0.1%; no addition = 100
Method: as §1, §2, §3, §4

sphingomyelinase [3] = assay: Substrate specificity; type: biochemical, Streptomyces sp. A 9107; conditions: as substrate; sphingomyelin = 100
Method: as §1, §2, §3, §4
(10) SUBSTRATE SPECIFICITY

[4] = Thermal stability (residual activity); type: physicochemical; conditions: 23 u/ml in 100 mM Tris-HCl buffer (pH 7.0), heated for 10 minutes
Method: An enzyme solution is prepared so that its concentration in 100 mM Tris-HCl buffer (pH 7.0) is 23 u/ml, and measured for the residual activity after heated for 10 minutes at every temperatures shown on the abscissa in FIG. 3. The liquor is kept stable until the treatment at 40° C. for 10 minutes.

[5] = Isoelectric point by electrophoretic method using ampholite; type: physicochemical
Method: It is determined by the electrophoretic method using ampholite, a carrier. The pH obtained is 8.6.

[6] = Measurement of enzymatic activity (specific activity of preparations); type: biochemical; conditions: 1 unit = 1 μmole phosphorylcholine per minute
Method: as §1, §2, §3, §4

Compound: [Ba+2].[Cl-].[Cl-] [BaCl2]
- Relative activity (%) (sphingomyelinase [1]; additive 1 mM): 89%

Compound: [Ca+2].[Cl-].[Cl-] [CaCl2]
- Relative activity (%) (sphingomyelinase [1]; additive 1 mM): 48%

Compound: [Cl-].[Cl-].[Co+2] [CoCl2]
- Relative activity (%) (sphingomyelinase [1]; additive 1 mM): 35%

Compound: [Cl][Cu][Cl] [CuCl2]
- Relative activity (%) (sphingomyelinase [1]; additive 1 mM): 19%

Compound: [Cl-].[K+] [KCl]
- Relative activity (%) (sphingomyelinase [1]; additive 100 mM): 90%

Compound: [Cl-].[Cl-].[Mg+2] [MgCl2]
- Relative activity (%) (sphingomyelinase [1]; additive 1 mM): 232%

Compound: [Cl][Mn][Cl] [MnCl2]
- Relative activity (%) (sphingomyelinase [1]; additive 1 mM): 236%

Compound: Cl.N [NH4 Cl]
- Relative activity (%) (sphingomyelinase [1]; additive 100 mM): 79%

Compound: [Cl-].[Na+] [NaCl]
- Relative activity (%) (sphingomyelinase [1]; additive 100 mM): 73%

Compound: [Cl][Ni][Cl] [NiCl2]
- Relative activity (%) (sphingomyelinase [1]; additive 1 mM): 12%

Compound: C[C@H](CCC(=O)O)[C@H]1CC[C@H]2[C@@H]3CC[C@@H]4C[C@H](O)CC[C@]4(C)[C@H]3C[C@H](O)[C@]12C [Sodium deoxycholate]
- Relative activity (%) (sphingomyelinase [2]): 16%

Compound: CCCCCCCCCCCCOS(=O)(=O)[O-].[Na+] [Sodium laurylsulfate]
- Relative activity (%) (sphingomyelinase [2]): 13%

Compound: [Cl-].[Cl-].[Zn+2] [ZnCl2]
- Relative activity (%) (sphingomyelinase [1]; additive 1 mM): 3%

Compound: Lecithin
- Relative activity (%) (sphingomyelinase [3]): 0%

Compound: Lysolecithin
- Relative activity (%) (sphingomyelinase [3]): 0%

Compound: Phosphatidyl ethanolamine
- Relative activity (%) (sphingomyelinase [3]): 0%

Compound: Phosphatidyl inositol
- Relative activity (%) (sphingomyelinase [3]): 0%

Compound: Phosphatidyl serine
- Relative activity (%) (sphingomyelinase [3]): 0%

Compound: Sodium laurylbenzenesulfonate
- Relative activity (%) (sphingomyelinase [2]): 8%

Compound: Sphingomyelin
- Relative activity (%) (sphingomyelinase [3]): 100%

Compound: Triton X-100
- Relative activity (%) (sphingomyelinase [2]): 358%

Compound: sphingomyelinase [enzyme]
- Temperature until which kept stable [4]: ≤ 40 °C
- Isoelectric point [5]: 8.6 pH
- Specific activity [6]: 1,050 U/mg
